Laboratory results reported in publication PMC8667942 (Journal of Enzyme Inhibition and Medicinal Chemistry, 2021).

What was measured:
IP3K = details: [ATP] = 10 μM; cited from earlier work
IP6K = details: [ATP] = 1 mM; cited from earlier work
purified CYP3A4 = purified CYP3A4 (Homo sapiens, UniProt P08684); assay: Spectral binding titration of purified CYP3A4; details: Type I or Type II spectral change
Description: Purified CYP3A4 enzymes were diluted to 1 µM in 100 mM potassium phosphate buffer (pH 7.4) and then divided into two glass cuvettes. […] The binding titration was analysed using GraphPad Prism software (GraphPad, Inc., La Jolla, CA, USA).

human IP6K2 = target: T1, human IP6K2 (Homo sapiens, UniProt Q9UHH9); assay: IP6K2 inhibition assay (ADP Glo kinase assay); assay type: biochemical; details: purified human IP6K2, 10 μM IP6, 10 μM ATP, 8-dose, triplicate, mean ± SEM
T1 construct: made in house; host or cells: Sf9 insect cells (baculovirus)
T1 sequence (Q9UHH9 1-426): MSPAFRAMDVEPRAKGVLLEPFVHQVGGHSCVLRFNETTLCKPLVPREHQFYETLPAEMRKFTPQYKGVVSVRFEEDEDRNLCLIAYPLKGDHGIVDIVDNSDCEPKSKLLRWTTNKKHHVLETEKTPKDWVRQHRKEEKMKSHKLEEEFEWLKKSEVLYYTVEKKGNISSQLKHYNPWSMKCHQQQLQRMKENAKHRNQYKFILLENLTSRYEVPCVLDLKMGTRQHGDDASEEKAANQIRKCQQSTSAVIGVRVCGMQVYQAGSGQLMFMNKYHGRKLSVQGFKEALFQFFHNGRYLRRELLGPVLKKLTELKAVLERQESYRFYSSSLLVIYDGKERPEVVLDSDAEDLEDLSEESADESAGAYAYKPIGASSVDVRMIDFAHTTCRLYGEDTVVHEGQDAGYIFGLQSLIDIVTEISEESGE
Description: Full-length human IP6K2 cDNA was subcloned into pFASTBAC1 plasmid (Gibco) with an N-terminal FLAG epitope sequence, and baculovirus was generated according to the manufacturer’s instructions. Sf9 insect cells were infected with baculovirus and incubated for 72 h. The cells were resuspended in lysis buffer [20 mM Tris–HCl (pH 7.9), 500 mM NaCl, 4 mM MgCl2, 0.4 mM EDTA, 2 mM DTT, 20% glycerol, 1 mM PMSF, and protease inhibitor cocktail (Roche)] and then disrupted with a Dounce homogeniser (pestle A, 3 series of 10 strokes with 10 min interval).
IP6K2 activity was measured using ADP Glo assay kit (Promega). All kinase assays were performed in low volume 384-well white plates (784075, Greiner-bioone) with a final volume of 5 μL. The reaction buffer contained 2 ng Flag-hIP6K2, 10 μM IP6, and 10 μM ATP in kinase buffer (50 mM Tris, 10 mM MgCl2, 2.5 mM DTT, 0.02% Triton-X-100, pH 6.8)[26]. For dose-dependent inhibition assay, 8 serial 2-fold dilutions of test compounds were prepared in DMSO. The final DMSO concentration was 5% in each reaction. The test compounds (5X, 25% DMSO in 1X kinase buffer) were dispensed to each well, and 2.5 X IP6K2 in kinase buffer were added. After 15 min incubation at room temperature, 2.5 X concentrations of IP6 and ATP were added to the plate. The reaction plate was incubated in a 37 °C incubator for 30 min. Next, the reactions were quenched with 5 μL of ADP Glo reagent for 40 min to deplete the remaining ATP. To convert the remaining ADP to ATP, 10 μl of detection reagent were added and incubated for 30–60 min. The luminescence of the final reactants was measured using the Mithras LB940 plate reader from Berthold. Samples were run in triplicate and the activity (%) was calculated using the following equations; Activity (%) = 100 × (μexperimental–μnegative)/(μpositive–μnegative). Negative control was DSMO-treated reaction. IC50 value was estimated using a logistic regression model with R package.

purified CYP3A4, sequence (P08684 whole entry): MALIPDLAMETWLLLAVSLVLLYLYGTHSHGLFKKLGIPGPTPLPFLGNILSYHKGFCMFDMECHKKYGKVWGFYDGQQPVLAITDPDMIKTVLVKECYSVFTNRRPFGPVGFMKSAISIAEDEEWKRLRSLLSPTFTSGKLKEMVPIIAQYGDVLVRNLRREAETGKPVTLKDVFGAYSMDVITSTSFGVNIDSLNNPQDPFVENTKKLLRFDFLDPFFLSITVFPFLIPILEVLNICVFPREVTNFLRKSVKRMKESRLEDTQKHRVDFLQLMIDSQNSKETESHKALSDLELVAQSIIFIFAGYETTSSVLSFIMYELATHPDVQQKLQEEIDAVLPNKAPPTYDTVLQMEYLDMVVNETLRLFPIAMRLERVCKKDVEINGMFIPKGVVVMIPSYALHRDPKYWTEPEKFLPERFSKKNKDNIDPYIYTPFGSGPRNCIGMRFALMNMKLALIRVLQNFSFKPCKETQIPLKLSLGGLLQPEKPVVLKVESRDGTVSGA

## O=[N+]([O-])c1ccc(CNc2nc(NCc3cccc(C(F)(F)F)c3)nc3[nH]cnc23)cc1 [TNP, N^6-[(4-nitrophenyl)methyl]-N^2-[[3-(trifluoromethyl)phenyl]methyl]-9H-purine-2,6-diamine]
IP3K
  IC50: 18 µM
IP6K
  IC50: 0.47 µM
Purified CYP3A4
  CYP3A4 binding mode: Type I
Human IP6K2
  IC50: 4.5 ± 0.4 µM
